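Briefly, cells in 96-well plates were exposed to five compound concentrations for 48 h, and endpoints were estimated by linear interpolation. TGI marks complete inhibition of growth.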
Legend:
Assay in all cases: NCI anticancer screen, dose series, 48 h
SR leukemia = test system: SR leukemia
HCC-2998 colon = test system: HCC-2998 colon
CCRF-CEM leukemia = test system: CCRF-CEM leukemia
EKVX NSCLC = test system: EKVX NSCLC
MCF7 breast = test system: MCF7 breast
OVCAR-5 ovarian = test system: OVCAR-5 ovarian
HT29 colon = test system: HT29 colon
NCI-H226 lung = test system: NCI-H226 lung
NCI-H522 lung = test system: NCI-H522 lung
BT-549 breast = test system: BT-549 breast
HOP-62 NSCLC = test system: HOP-62 NSCLC
RXF 393 renal = test system: RXF 393 renal
A549 NSCLC = test system: A549 NSCLC
HCT-15 colon = test system: HCT-15 colon
PC-3 prostate = test system: PC-3 prostate
SN12C renal = test system: SN12C renal
MDA-N = test system: MDA-N
OVCAR-8 ovarian = test system: OVCAR-8 ovarian
KM12 colon = test system: KM12 colon
HOP-92 NSCLC = test system: HOP-92 NSCLC
A498 renal = test system: A498 renal
SK-OV-3 ovarian = test system: SK-OV-3 ovarian
SF-295 CNS = test system: SF-295 CNS
UACC-62 melanoma = test system: UACC-62 melanoma
SNB-75 CNS = test system: SNB-75 CNS
NCI/ADR-RES ovarian = test system: NCI/ADR-RES ovarian
LOX IMVI melanoma = test system: LOX IMVI melanoma
NCI-H23 lung = test system: NCI-H23 lung
HL-60(TB) leukemia = test system: HL-60(TB) leukemia
U251 CNS = test system: U251 CNS
HCT-116 colon = test system: HCT-116 colon
UO-31 renal = test system: UO-31 renal
NCI-H460 lung = test system: NCI-H460 lung
SK-MEL-28 melanoma = test system: SK-MEL-28 melanoma
ACHN renal = test system: ACHN renal
UACC-257 melanoma = test system: UACC-257 melanoma
SNB-19 CNS = test system: SNB-19 CNS
MDA-MB-435 = test system: MDA-MB-435
SW-620 colon = test system: SW-620 colon
OVCAR-3 ovarian = test system: OVCAR-3 ovarian
CAKI-1 renal = test system: CAKI-1 renal
SF-268 CNS = test system: SF-268 CNS
SK-MEL-2 melanoma = test system: SK-MEL-2 melanoma
TK-10 renal = test system: TK-10 renal
786-0 renal = test system: 786-0 renal
IGROV1 ovarian = test system: IGROV1 ovarian
SF-539 CNS = test system: SF-539 CNS
COLO 205 colon = test system: COLO 205 colon
T-47D breast = test system: T-47D breast
HS 578T breast = test system: HS 578T breast
MDA-MB-231 breast = test system: MDA-MB-231 breast
MOLT-4 leukemia = test system: MOLT-4 leukemia
DU-145 prostate = test system: DU-145 prostate
SK-MEL-5 melanoma = test system: SK-MEL-5 melanoma
M14 melanoma = test system: M14 melanoma
OVCAR-4 ovarian = test system: OVCAR-4 ovarian
K-562 leukemia = test system: K-562 leukemia
RPMI-8226 leukemia = test system: RPMI-8226 leukemia
MALME-3M melanoma = test system: MALME-3M melanoma

Measured: TGI

Cc1ccc2c(c1)[nH]c(=S)n2C=C1C(=O)CC(C)(C)CC1=O
> 100 µM: SR leukemia | HCC-2998 colon | CCRF-CEM leukemia | EKVX NSCLC | MCF7 breast | OVCAR-5 ovarian | HT29 colon | NCI-H226 lung | NCI-H522 lung | BT-549 breast | HOP-62 NSCLC | RXF 393 renal | A549 NSCLC | HCT-15 colon | PC-3 prostate | SN12C renal | MDA-N | OVCAR-8 ovarian | KM12 colon | HOP-92 NSCLC | A498 renal | SK-OV-3 ovarian | SF-295 CNS | UACC-62 melanoma | SNB-75 CNS | NCI/ADR-RES ovarian | LOX IMVI melanoma | NCI-H23 lung | HL-60(TB) leukemia | U251 CNS | HCT-116 colon | UO-31 renal | NCI-H460 lung | SK-MEL-28 melanoma | ACHN renal | UACC-257 melanoma | SNB-19 CNS | MDA-MB-435 | SW-620 colon | OVCAR-3 ovarian | CAKI-1 renal | SF-268 CNS | SK-MEL-2 melanoma | TK-10 renal | 786-0 renal | IGROV1 ovarian | SF-539 CNS | COLO 205 colon | T-47D breast | HS 578T breast | MDA-MB-231 breast | MOLT-4 leukemia | DU-145 prostate | SK-MEL-5 melanoma | M14 melanoma | OVCAR-4 ovarian

C[C@H]1CC[C@@H]2[C@@H](C)[C@H]3[C@H](C[C@H]4[C@@H]5CC=C6C[C@@H](O)CC[C@]6(C)[C@H]5C[C@H](O)[C@]34C)N2C1
> 100 µM: SR leukemia | HCC-2998 colon | EKVX NSCLC | MCF7 breast | OVCAR-5 ovarian | HT29 colon | NCI-H226 lung | NCI-H522 lung | BT-549 breast | HOP-62 NSCLC | RXF 393 renal | A549 NSCLC | HCT-15 colon | PC-3 prostate | SN12C renal | MDA-N | OVCAR-8 ovarian | K-562 leukemia | KM12 colon | HOP-92 NSCLC | A498 renal | SK-OV-3 ovarian | SF-295 CNS | UACC-62 melanoma | SNB-75 CNS | NCI/ADR-RES ovarian | LOX IMVI melanoma | NCI-H23 lung | RPMI-8226 leukemia | U251 CNS | HCT-116 colon | UO-31 renal | NCI-H460 lung | SK-MEL-28 melanoma | ACHN renal | UACC-257 melanoma | SNB-19 CNS | MDA-MB-435 | SW-620 colon | OVCAR-3 ovarian | CAKI-1 renal | SF-268 CNS | SK-MEL-2 melanoma | TK-10 renal | 786-0 renal | IGROV1 ovarian | SF-539 CNS | COLO 205 colon | T-47D breast | MALME-3M melanoma | HS 578T breast | MDA-MB-231 breast | MOLT-4 leukemia | DU-145 prostate | SK-MEL-5 melanoma | M14 melanoma | OVCAR-4 ovarian

CCOC(=O)c1cccc([N+](=O)[O-])c1N
> 100 µM: SR leukemia | HCC-2998 colon | CCRF-CEM leukemia | EKVX NSCLC | MCF7 breast | OVCAR-5 ovarian | HT29 colon | NCI-H226 lung | NCI-H522 lung | BT-549 breast | HOP-62 NSCLC | A549 NSCLC | HCT-15 colon | PC-3 prostate | SN12C renal | MDA-N | OVCAR-8 ovarian | K-562 leukemia | KM12 colon | HOP-92 NSCLC | A498 renal | SK-OV-3 ovarian | SF-295 CNS | UACC-62 melanoma | SNB-75 CNS | NCI/ADR-RES ovarian | LOX IMVI melanoma | NCI-H23 lung | RPMI-8226 leukemia | HL-60(TB) leukemia | U251 CNS | HCT-116 colon | UO-31 renal | NCI-H460 lung | SK-MEL-28 melanoma | ACHN renal | UACC-257 melanoma | SNB-19 CNS | MDA-MB-435 | SW-620 colon | OVCAR-3 ovarian | CAKI-1 renal | SK-MEL-2 melanoma | TK-10 renal | 786-0 renal | IGROV1 ovarian | SF-539 CNS | COLO 205 colon | T-47D breast | MALME-3M melanoma | HS 578T breast | MDA-MB-231 breast | MOLT-4 leukemia | DU-145 prostate | SK-MEL-5 melanoma | M14 melanoma | OVCAR-4 ovarian

CO/N=C1/c2sccc2[C@H](NC(=O)C(F)(F)F)[C@@H]1O
> 100 µM: SR leukemia | HCC-2998 colon | CCRF-CEM leukemia | EKVX NSCLC | MCF7 breast | OVCAR-5 ovarian | HT29 colon | NCI-H226 lung | BT-549 breast | HOP-62 NSCLC | RXF 393 renal | A549 NSCLC | HCT-15 colon | PC-3 prostate | SN12C renal | MDA-N | OVCAR-8 ovarian | K-562 leukemia | HOP-92 NSCLC | A498 renal | SK-OV-3 ovarian | SF-295 CNS | UACC-62 melanoma | SNB-75 CNS | NCI/ADR-RES ovarian | LOX IMVI melanoma | NCI-H23 lung | HL-60(TB) leukemia | U251 CNS | HCT-116 colon | UO-31 renal | NCI-H460 lung | SK-MEL-28 melanoma | UACC-257 melanoma | MDA-MB-435 | SW-620 colon | OVCAR-3 ovarian | CAKI-1 renal | SF-268 CNS | SK-MEL-2 melanoma | TK-10 renal | IGROV1 ovarian | SF-539 CNS | COLO 205 colon | T-47D breast | MALME-3M melanoma | HS 578T breast | MDA-MB-231 breast | MOLT-4 leukemia | DU-145 prostate | SK-MEL-5 melanoma | M14 melanoma | OVCAR-4 ovarian
